From US20190002429A1, “Derivatives of Xanthone Compounds” (Agency for Science, Technology and Research, priority 2011, published 2019)
Several values for one entry are separate records, joined by “and”; a condition that tells them apart may be missing. Equal entries are not always repeated. Entries after “also recorded” stand apart in the source; their conditions may differ.

Columns and labels:
[1] = system: MRSA DM09808R; test: MIC against MRSA DM09808R; type: cell-based, Staphylococcus aureus
[2] = system: MRSA DR42412; test: MIC against MRSA DR42412; type: cell-based, Staphylococcus aureus
[3] = system: Enterococcus faecalis 11: DU9345 VRE; test: MIC against Enterococcus faecalis DU9345 VRE; type: cell-based; settings: E. faecalis DU9345 VRE; no unit in table (Example 10 MICs in μg/ml)
[4] = system: Gram-negative bacteria; test: Antimicrobial activity against Gram-negative bacteria (statement); type: cell-based
[5] = Calcein leakage from E. coli lipid extract liposomes; settings: for % Leakage of calcein: E. coli extract
Protocol: (§1) To further investigate antimicrobial action of the active compounds via inner membrane targeting, a calcein leakage study was performed. In brief, liposomes which mimic bacterial membrane (DOPE: […] The lipids were dissolved in methanol/chloroform (1:2, by volume). The solvent was then dried gently using a constant stream of nitrogen gas. Then, the lipid film was placed under vacuum for at least two hours. […] The hydrated vesicles were freeze-thaw (frozen in liquid nitrogen and warmed in water bath) for at least 7 cycles. Extrusion method using mini-extruder (Avanti Polar Lipid Inc.) was used to produce homogeneous large unilamellar vesicles (LUVs). The extrusion was done for at least 10 cycles using a polycarbonate membrane (Whatman, pore size 100 nm) to obtain LUVs with diameter of 100 nm. To separate the calcein encapsulated vesicles from free calcein, gel filtration column Sephadex G-50 was used. The concentrations of eluted liposomes were determined using total phosphorus determination assay. Leakage of calcein from the liposome induced by AM-series compounds could be monitored using fluorescence spectroscopy (Photon Technology International Model 814) at an excitation wavelength of 490 nm and an emission wavelength of 520 nm. […] Those compounds with […] HC50 values have stronger leakage %. […] To further investigate the inner membrane targeting action of AM-series compounds, E. coli lipid extract was used to construct the liposome. […] Therefore, the outer layer of Gram-negative bacteria (LPS) may play important role to impede the AM-series compounds to reach inner membrane. Calcein leakage data strongly support the active compounds are inner membrane targeting.

[6] = system: Streptococcus epidermidis ATCC 12228; test: MIC against Streptococcus epidermidis ATCC 12228; type: cell-based
[7] = Calcein leakage from DOPE:DOPG liposomes; settings: DOPE:DOPG = 3:1
Protocol: as §1

[8] = system: red blood cell
[9] = system: Clinical Staphylococcus aureus DM4001; test: Cytoplasmic membrane depolarization (DiSC3 dye); type: cell-based; settings: DiSC3 fluorescence; AM-016 at 12.5 ug/mL
Protocol: Membrane potential-sensitive dye 3,3′-dipropylthiadicarbocyanine iodide (DiSC3) was used to determine the cytoplasmic membrane depolarization activity of AM-016. An overnight culture of clinical Staphylococcus aureus DM4001(source: Eye) was allowed to grow in Muller-Hinton broth (MHB) to OD620=0.3-0.4. Then, the bacteria was collected by centrifugation at 2800 r.p.m at 37° C. for 30 minutes and washed with 5 mM HEPES buffer at pH7. […] The cell suspension was then incubated with 0.1M KCl and 0.4 μM DiSC3 at 37° C. for 30 minutes. Dye uptake was monitored by fluorospectrometry (Photon Technology International (PTI) Photomultiplier Detection Systems, model 814) in a stirred cuvette until the fluorescence signal was stable. The desired concentration of AM-016 was added and the fluorescence was monitored at an excitation wavelength of 622 nm and at an emission wavelength of 670 nm. A blank with dye in the absence of bacteria with same concentration of AM-016 was used as a control.

[10] = system: Bacillus cereus ATCC11778; test: MIC against Bacillus cereus ATCC11778; type: cell-based
[11] = system: MRSA DR68004; test: MIC against MRSA DR68004; type: cell-based, Staphylococcus aureus; settings: MRSA DR68004, Source: Blood
[12] = system: Clinical Staphylococcus aureus DM4583R; test: MIC against clinical S. aureus DM4583R; type: cell-based; settings: Source: Eye
[13] = system: Clinical Staphylococcus aureus DM4001; test: MIC against clinical S. aureus DM4001; type: cell-based; settings: Clinical S. aureus DM4001, Source: Eye
[14] = system: MRSA DM21455; test: Drug resistance test, 20 serial passages; type: cell-based, Staphylococcus aureus; settings: MRSA DM21455, FIG. 7

## 3,6-bis-[4-(diethylamino)butoxy)]-1-hydroxy-7-methoxy-2,8-bis(3-methylbut-2-enyl)-9H-xanthen-9-one [AM-016]
[1]; MRSA DM09808R, Source: Eye
  Minimum inhibition concentration (MIC): 1.56 μg/ml and 2.35 μM
[1]; MRSA-09808R (Eye), Example 10, Mueller Hinton broth dilution
  MIC: 3.125 µg/mL
[2]; MRSA DR42412, Source: Sputum
  Minimum inhibition concentration (MIC): 1.56 μg/ml and 2.35 μM
[2]; MRSA-42412 (Sputum), Example 10, Mueller Hinton broth dilution
  MIC: 0.395 µg/mL
[3]
  Minimum inhibitory concentration: 0.78
[4]
  Activity against Gram-negative bacteria: inactive
[5]
  Leakage of calcein from the E. coli lipid extract (in words): able to induce leakage
[5]; compound:lipid ratio 1:2
  % Leakage of calcein: 57.82%
[5]; compound:lipid ratio 1:4
  % Leakage of calcein: 58.43%
[5]; compound:lipid ratio 1:8
  % Leakage of calcein: 31.70%
[6]
  Minimum inhibition concentration (MIC): 0.78 μg/ml and 1.17 μM
[7]; compound:lipid ratio 1:2
  % Leakage of calcein: 54.43%
[7]; compound:lipid ratio 1:4
  % Leakage of calcein: 37.00%
[7]; compound:lipid ratio 1:8
  % Leakage of calcein: 21.00%
[8]
  HC50: 19.6 µg/mL
  Hemolytic concentration, HC50: 19.6 µg/mL
[9]
  Cytoplasmic membrane depolarization: causes membrane depolarization; also recorded: depolarizes
[10]
  Minimum inhibition concentration (MIC): 3.125 μg/ml and 4.70 μM
[11]
  Minimum inhibition concentration (MIC): 1.56 μg/ml and 2.35 μM
[12]
  Minimum inhibition concentration (MIC): 0.78 μg/ml and 1.17 μM
[13]
  Minimum inhibition concentration (MIC): 1.56 μg/ml and 2.35 μM
[14]
  Development of drug resistance: has difficulty in developing drug resistance
